Reference: patent US20040014215A1, “Synchronised arabidopsis cell suspensions and uses thereof” (priority 2000, published 2004)

Key:
[1] = tested on: Transgenic MM1-cycD2 cell lines; test: Aphidicolin block/release of transgenic MM1-cycD2 cell lines; format: cell-based, Arabidopsis thaliana; conditions: compared with non transgenic MM1 cell lines
Description: To re-establish liquid cultures of putative transgenic MM1-calli, callus tissue was transferred to a 55 mm petridish, carefully squeezed with a pipet tip and resuspended in 10 ml fresh MSS-medium (0.5 mg/l NM, 0.05 mg/l kinetin, 100 μg/ml kanamycin). The callus derived cell suspensions were incubated at 120 rpm, 23° C. under continuous light conditions in 100 ml Erlenmeyer flasks. After 10 days cultivation, 10 ml MSS-medium (0.5 mg/l NM, 0.05 mg/l kinetin) was added to the suspension cultures and left for further 7 days under conditions as above. 5 ml putative transgenic cell suspension was subcultured into 50 ml fresh MSS-medium (0.5 mg/l NM, 0.05 mg/l kinetin, 100 μg/ml kanamycin). This subculturing procedure was repeated twice at 7 days intervals in the same medium. Subsequent subculturing was carried out weekly into fresh MSS-medium (0.5 mg/l NAA, 0.05 mg/l kinetin without kanamycin selection), adjusting the transferred volume of cells to produce an inoculum of approximately the same as WT-MM1 culture. In the example of putative transgenic MM1-cycD2 cell suspensions, these were maintained by subculturing weekly 3.5 ml into 100 ml fresh MSS-medium (0.5 mg/l NAA, 0.05 mg/l kinetin) in 300 ml Erlenmeyer flasks. […] Putative transgenic calli or the suspension cultures thereof were analyzed using PCR and appropriate primers allowing to detect the cycD2 coding region. […]

[2] = tested on: tobacco BY-2 cell line; conditions: BY-2, aphidicolin block; cited from earlier work
[3] = tested on: cell cycle; conditions: phase of the cell cycle at which cells are arrested; cited from earlier work
[4] = tested on: CycD3; test: Northern expression analysis after aphidicolin synchronisation of MM1 (maximum signal = 100%); format: cell-based, Arabidopsis thaliana
Description: (§1) was analysed following the expression level of known cell cycle regulated genes. Synchronisation was performed as described in Example 2A, with the exception that two 7-day old cultures of the weekly sub-cultured cell suspension (210 ml each) were combined. 40 ml of combined culture was transferred into 200 ml of fresh MSS-medium in each of 10 separate flasks. After incubation for 24 hrs under conditions as described in Example 1, in the presence of 4.16 μg/ml aphidicolin, cells from 5 pooled flasks were washed through a nylon net (mesh size 47 μm) and washed with 2 litre MSS medium and shaken vigorously to remove the aphidicolin. Cells were transferred into a 50 ml plastic tube, washed again with MSS medium and centrifuged at 2500 rpm for 1 min (1075 rcf). Cells were resuspended and combined with the cells from the other 5 flasks similarly washed in a total volume of 300 ml fresh MSS-medium. 30 ml of this cell suspension was then added to 200 ml fresh MSS-medium in each of 10 separate flasks.
(§2) 1) 25 ml for Northern blot (transferred into 50 ml plastic tube, centrifuged at 2500 rpm for 1 min, the supernatant discarded, and the cell pellet shock-frozen in liquid nitrogen before storing in −80° C. freezer)
(§3) Samples were collected at the time point indicated (time of removal of aphidicolin equals time point 0 hrs) and were analysed for expression of the following genes by Northern blot:
(§4) For each probe the maximum hybridisation signal obtained was defined as 100%.

[5] = tested on: CycB1; test: as above; format: cell-based, Arabidopsis thaliana
Description: as §1, §2, §3, §4

[6] = tested on: CDK-b2; test: as above; format: cell-based, Arabidopsis thaliana
Description: as §1, §2, §3, §4

[7] = 0 hrs after aphidicolin removal
[8] = 2 hrs after aphidicolin removal
[9] = 4 hrs after aphidicolin removal
[10] = 6 hrs after aphidicolin removal
[11] = 8 hrs after aphidicolin removal
[12] = 10 hrs after aphidicolin removal
[13] = 12 hrs after aphidicolin removal
[14] = 14 hrs after aphidicolin removal
[15] = 16 hrs after aphidicolin removal
[16] = 18 hrs after aphidicolin removal
[17] = 20 hrs after aphidicolin removal
[18] = 22 hrs after aphidicolin removal
[19] = 24 hrs after aphidicolin removal
[20] = 26 hrs after aphidicolin removal
[21] = 28 hrs after aphidicolin removal
[22] = 30 hrs after aphidicolin removal

For `C[C@@]1(CO)[C@H](O)CC[C@@]2(C)[C@H]1CC[C@H]1C[C@@H]3C[C@@]12CC[C@]3(O)CO` [aphidicolin], the “synchronisation by aphidicolin block/release” value [1] is given as “could be synchronized in a similar way as non transgenic MM1 cell lines”, the mitotic index [2] is given as 45-50% and the cell cycle arrest [3] is given as “G1/early S”. The CycD3 % [4, 7] was 12.10%, the “CycD3 Band intensity” value [4, 7] was 465 and the CycD3 % [4, 8] was 14.46%. The “CycD3 Band intensity” value [4, 8] was 555, the CycD3 % [4, 9] was 43.55% and the “CycD3 Band intensity” value [4, 9] was 1674. The CycD3 % [4, 10] was 76.31%, the “CycD3 Band intensity” value [4, 10] was 2933 and the CycD3 % [4, 11] was 72.80%. The “CycD3 Band intensity” value [4, 11] was 2798, the CycD3 % [4, 12] was 77.13% and the “CycD3 Band intensity” value [4, 12] was 2964. For the same molecule, the CycD3 % [4, 13] was 85.55%, the “CycD3 Band intensity” value [4, 13] was 3288 and the CycD3 % [4, 14] was 100.0%. For the same molecule, the “CycD3 Band intensity” value [4, 14] was 3844, the CycD3 % [4, 15] was 79.41% and the “CycD3 Band intensity” value [4, 15] was 3052. The CycD3 % [4, 16] was 79.09%, the “CycD3 Band intensity” value [4, 16] was 3040 and the CycD3 % [4, 17] was 94.06%. The “CycD3 Band intensity” value [4, 17] was 3615, the CycD3 % [4, 18] was 59.40% and the “CycD3 Band intensity” value [4, 18] was 2283. For the same molecule, the CycD3 % [4, 19] was 26.53%, the “CycD3 Band intensity” value [4, 19] was 1019 and the CycD3 % [4, 20] was 51.71%. For the same molecule, the “CycD3 Band intensity” value [4, 20] was 1987, the CycD3 % [4, 21] was 64.80% and the “CycD3 Band intensity” value [4, 21] was 2490. For the same molecule, the CycD3 % [4, 22] was 70.93%, the “CycD3 Band intensity” value [4, 22] was 2726 and the cycB1 % [5, 7] was 33.18%. For the same molecule, the “cycB1 Band intensity” value [5, 7] was 636, the cycB1 % [5, 8] was 62.69% and the “cycB1 Band intensity” value [5, 8] was 1201. For the same molecule, the cycB1 % [5, 9] was 47.09%, the “cycB1 Band intensity” value [5, 9] was 902 and the cycB1 % [5, 10] was 59.67%. The “cycB1 Band intensity” value [5, 10] was 1143, the cycB1 % [5, 11] was 69.42% and the “cycB1 Band intensity” value [5, 11] was 1330. For the same molecule, the cycB1 % [5, 12] was 83.86%, the “cycB1 Band intensity” value [5, 12] was 1607 and the cycB1 % [5, 13] was 89.57%. The “cycB1 Band intensity” value [5, 13] was 1717, the cycB1 % [5, 14] was 100.0% and the “cycB1 Band intensity” value [5, 14] was 1917. The cycB1 % [5, 15] was 76.51%, the “cycB1 Band intensity” value [5, 15] was 1466 and the cycB1 % [5, 16] was 90.81%. The “cycB1 Band intensity” value [5, 16] was 1740, the cycB1 % [5, 17] was 77.04% and the “cycB1 Band intensity” value [5, 17] was 1476. For the same molecule, the cycB1 % [5, 18] was 45.09%, the “cycB1 Band intensity” value [5, 18] was 864 and the cycB1 % [5, 19] was 48.70%. The “cycB1 Band intensity” value [5, 19] was 933, the cycB1 % [5, 20] was 49.18% and the “cycB1 Band intensity” value [5, 20] was 942. For the same molecule, the cycB1 % [5, 21] was 52.79%, the “cycB1 Band intensity” value [5, 21] was 1012 and the CDK-b2 % [6, 7] was 7.78%. The “CDK-b2 Band intensity” value [6, 7] was 1084, the CDK-b2 % [6, 8] was 12.90% and the “CDK-b2 Band intensity” value [6, 8] was 1796. For the same molecule, the CDK-b2 % [6, 9] was 8.22%, the “CDK-b2 Band intensity” value [6, 9] was 1144 and the CDK-b2 % [6, 10] was 12.09%. The “CDK-b2 Band intensity” value [6, 10] was 1683, the CDK-b2 % [6, 11] was 28.47% and the “CDK-b2 Band intensity” value [6, 11] was 3963. For the same molecule, the CDK-b2 % [6, 12] was 49.90%, the “CDK-b2 Band intensity” value [6, 12] was 6947 and the CDK-b2 % [6, 13] was 87.45%. The “CDK-b2 Band intensity” value [6, 13] was 12174, the CDK-b2 % [6, 14] was 100% and the “CDK-b2 Band intensity” value [6, 14] was 13921. The CDK-b2 % [6, 15] was 55.84%, the “CDK-b2 Band intensity” value [6, 15] was 7774 and the CDK-b2 % [6, 16] was 67.57%. For the same molecule, the “CDK-b2 Band intensity” value [6, 16] was 9407, the CDK-b2 % [6, 17] was 47.80% and the “CDK-b2 Band intensity” value [6, 17] was 6654. The CDK-b2 % [6, 18] was 22.78%, the “CDK-b2 Band intensity” value [6, 18] was 3172 and the CDK-b2 % [6, 19] was 13.73%. The “CDK-b2 Band intensity” value [6, 19] was 1912, the CDK-b2 % [6, 20] was 22.86% and the “CDK-b2 Band intensity” value [6, 20] was 3183. For the same molecule, the CDK-b2 % [6, 21] was 18.55%, the “CDK-b2 Band intensity” value [6, 21] was 2583 and the CDK-b2 % [6, 22] was 22.19%. The “CDK-b2 Band intensity” value [6, 22] was 3089.
